Measured values taken from publication PMC7587356, “High-Throughput Screening for Inhibitors of the SARS-CoV-2 Protease Using a FRET-Biosensor” (Molecules, 2020).
Structures can show the parent of a compound that is named as a salt. Where two headings read alike, the source gives them in different places.

Target: SARS-CoV-2 3CLpro (Severe acute respiratory syndrome coronavirus 2, UniProt P0DTD1)
Test: biochemical
Assay type: biochemical
Parameters: Replicate_1 / Replicate_2 / mean / mean (LOPAC_screen_w_protease): unit not given here
Details: for inhibition at 5 µM: 4 h
[1] = sheet LOPAC_screen_w_protease, LOPAC1280 primary screen with protease, 5 µM compound, mean of the two replicates, read-out: mean
[2] = sheet LOPAC_screen_w_protease, LOPAC1280 primary screen with protease, 5 µM compound, replicate 1, read-out: Replicate_1
[3] = sheet LOPAC_screen_w_protease, LOPAC1280 primary screen with protease, 5 µM compound, replicate 2, read-out: Replicate_2
[4] = sheet LOPAC_screen_w_protease, primary screen with protease, mean of two replicates
[5] = sheet LOPAC_screen_w_protease, primary screen with protease, replicate 1
[6] = sheet LOPAC_screen_w_protease, primary screen with protease, replicate 2
[7] = LOPAC1280 primary screen with protease, 5 µM compound, replicate 1, read-out: Replicate_1 (LOPAC_screen_w_protease)
[8] = LOPAC1280 primary screen with protease, 5 µM compound, mean of two replicates
[9] = sheet LOPAC_screen_w_protease, LOPAC1280 at 5 µM, mean of two replicates
[10] = sheet LOPAC_screen_w_protease, LOPAC1280 at 5 µM, replicate 1
[11] = sheet LOPAC_screen_w_protease, LOPAC1280 at 5 µM, replicate 2
[12] = sheet LOPAC_screen_w_protease, LOPAC1280 at 5 µM, mean of two replicates, read-out: mean
[13] = sheet LOPAC_screen_w_protease, LOPAC1280 at 5 µM, replicate 1, read-out: Replicate_1
[14] = sheet LOPAC_screen_w_protease, LOPAC1280 at 5 µM, replicate 2, read-out: Replicate_2
[15] = sheet LOPAC_screen_w_protease, LOPAC1280 primary screen with protease, 5 µM compound, mean of the two replicates
[16] = sheet LOPAC_screen_w_protease, LOPAC1280 primary screen with protease, 5 µM compound, replicate 1
[17] = sheet LOPAC_screen_w_protease, LOPAC1280 primary screen with protease, 5 µM compound, replicate 2
[18] = sheet LOPAC_screen_w_protease, primary screen with protease, 5 µM, mean of two replicates
[19] = sheet LOPAC_screen_w_protease, primary screen with protease, 5 µM, replicate 1
[20] = sheet LOPAC_screen_w_protease, primary screen with protease, 5 µM, replicate 2
[21] = LOPAC1280 primary screen with protease, 5 µM compound, replicate 1
[22] = LOPAC1280 primary screen with protease, 5 µM compound, replicate 2
[23] = LOPAC1280 primary screen with protease, 5 µM compound, replicate 2, read-out: Replicate_2 (LOPAC_screen_w_protease)
[24] = LOPAC1280 primary screen with protease, 5 µM compound, mean of the two replicates
[25] = sheet LOPAC_screen_w_protease, primary screen with protease, mean of two replicates, read-out: mean
[26] = sheet LOPAC_screen_w_protease, primary screen with protease, replicate 1, read-out: Replicate_1
[27] = sheet LOPAC_screen_w_protease, primary screen with protease, replicate 2, read-out: Replicate_2
[28] = sheet LOPAC_screen_w_protease, primary screen of LOPAC1280 at 5 µM with protease, mean of the two replicates
[29] = sheet LOPAC_screen_w_protease, primary screen of LOPAC1280 at 5 µM with protease, replicate 1
[30] = sheet LOPAC_screen_w_protease, primary screen of LOPAC1280 at 5 µM with protease, replicate 2
[31] = sheet LOPAC_screen_w_protease, LOPAC1280 primary screen at 5 µM, with protease, mean of the two replicates
[32] = sheet LOPAC_screen_w_protease, LOPAC1280 primary screen at 5 µM, with protease, replicate 1
[33] = sheet LOPAC_screen_w_protease, LOPAC1280 primary screen at 5 µM, with protease, replicate 2

## CC(=O)[C@H]1CC[C@H]2[C@@H]3CCC4=CC(=O)CC[C@]4(C)[C@H]3CC[C@]12C [Progesterone]
[1]
  inhibition at 5 µM: 5.55%
[2]
  inhibition at 5 µM: 3.58%
[3]
  inhibition at 5 µM: 7.53%

## CCCCCCCCCCC/C=C\C(C)(C)/C=C\CCCC(=O)O [7,7-Dimethyl-(5Z,8Z)-eicosadienoic acid]
[4]
  mean: 2.303
[5]
  Replicate_1: 4.092
[6]
  Replicate_2: 0.5145

## CC(=O)O[C@]1(C(C)=O)CC[C@H]2[C@@H]3C=C(Cl)C4=CC(=O)[C@@H]5C[C@@H]5[C@]4(C)[C@H]3CC[C@@]21C [Cyproterone acetate]
Sheet LOPAC_screen_w_protease, primary screen with protease, 5 µM, mean of two replicates, read-out: mean
  inhibition at 5 µM: -0.427%
Sheet LOPAC_screen_w_protease, primary screen with protease, 5 µM, replicate 1, read-out: Replicate_1
  inhibition at 5 µM: 1.58%
Sheet LOPAC_screen_w_protease, primary screen with protease, 5 µM, replicate 2, read-out: Replicate_2
  inhibition at 5 µM: -2.43%

## CCN1CCC[C@H]1CNC(=O)c1cc(S(N)(=O)=O)ccc1OC [(-)-Sulpiride]
[7]
  inhibition at 5 µM: 0.997%
[8]
  mean (LOPAC_screen_w_protease): 1.652

## O=C(O)c1cccnc1Nc1cccc(C(F)(F)F)c1 [Niflumic acid]
[1]
  inhibition at 5 µM: 4.95%
[2]
  inhibition at 5 µM: 4.76%
[3]
  inhibition at 5 µM: 5.13%

## CC(C)(C)NCC(O)c1cc(O)cc(O)c1.CC(C)(C)NCC(O)c1cc(O)cc(O)c1.O=S(=O)(O)O (centres unmarked) [Terbutaline hemisulfate]
[9]
  mean: 1.161
[10]
  Replicate_1: -0.3816
[11]
  Replicate_2: 2.703

## Nc1ccn([C@H]2CC[C@@H](CO)O2)c(=O)n1 [2',3'-dideoxycytidine]
[12]
  inhibition at 5 µM: 1.06%
[13]
  inhibition at 5 µM: 1.73%
[14]
  inhibition at 5 µM: 0.388%

## COc1cc(CNC(=O)CCCCCCC(C)C)ccc1O [Dihydrocapsaicin]
Sheet LOPAC_screen_w_protease, primary screen with protease, compound at 5 µM, mean of two replicates, read-out: mean
  inhibition at 5 µM: 3.14%
Sheet LOPAC_screen_w_protease, primary screen with protease, compound at 5 µM, replicate 1, read-out: Replicate_1
  inhibition at 5 µM: 4.91%
Sheet LOPAC_screen_w_protease, primary screen with protease, compound at 5 µM, replicate 2, read-out: Replicate_2
  inhibition at 5 µM: 1.38%

## Cl.Cl.Fc1ccc(C(OCCN2CCN(CCCc3ccccc3)CC2)c2ccc(F)cc2)cc1 [GBR-12909 dihydrochloride]
[15]
  mean: 4.322
[16]
  Replicate_1: 4.518
[17]
  Replicate_2: 4.126

## Cl.O=c1[nH]oc2c1CCNC2 [THIP hydrochloride]
[18]
  mean: -0.005768
[19]
  Replicate_1: -0.552
[20]
  Replicate_2: 0.5405

## Cl.c1ccc2nc(C3=NCCN3)ccc2c1 [BU224 hydrochloride]
[8]
  mean (LOPAC_screen_w_protease): 1.603
[21]
  Replicate_1 (LOPAC_screen_w_protease): 1.353
[22]
  Replicate_2 (LOPAC_screen_w_protease): 1.8522

## COC[C@H]1OC(=O)c2coc3c2[C@@]1(C)C1=C(C3=O)[C@@H]2CCC(=O)[C@@]2(C)C[C@H]1OC(C)=O [Wortmannin from Penicillium funiculosum]
[4]
  mean: 2.471
[5]
  Replicate_1: 2.1754
[6]
  Replicate_2: 2.767

## CC1(C(=O)O)C2CCC(O2)C1(C)C(=O)O (centres unmarked) [Cantharidic Acid]
[7]
  inhibition at 5 µM: 2.04%
[23]
  inhibition at 5 µM: 1.78%
[24]
  mean (LOPAC_screen_w_protease): 1.914

## C[C@]12CCC(=O)C=C1CC[C@@H]1[C@@H]2[C@@H](O)C[C@@]2(C)[C@H]1CC[C@]2(O)C(=O)CO [Hydrocortisone]
[12]
  inhibition at 5 µM: 1.15%
[13]
  inhibition at 5 µM: 2.23%
[14]
  inhibition at 5 µM: 0.0692%

## CCCn1c(C)c(C(=O)c2cccc3ccccc23)c2ccccc21 [JWH-015]
[8]
  mean (LOPAC_screen_w_protease): 1.386
[21]
  Replicate_1 (LOPAC_screen_w_protease): 1.748
[22]
  Replicate_2 (LOPAC_screen_w_protease): 1.024

## CN1CCN(C2=Nc3cc(Cl)ccc3Nc3ccccc32)CC1 [Clozapine]
[25]
  inhibition at 5 µM: 2.28%
[26]
  inhibition at 5 µM: 2.27%
[27]
  inhibition at 5 µM: 2.3%

## Br.Cc1o[nH]c(=O)c1CC(N)C(=O)O (racemic) [(±)-AMPA hydrobromide]
[4]
  mean: 2.246
[5]
  Replicate_1: 3.765
[6]
  Replicate_2: 0.7264

## CCc1cc(Cl)c(O)c(C(=O)NC[C@@H]2CCCN2CC)c1OC.Cl [S-(-)-Eticlopride hydrochloride]
[24]
  mean (LOPAC_screen_w_protease): 2.005
[21]
  Replicate_1 (LOPAC_screen_w_protease): 2.376
[22]
  Replicate_2 (LOPAC_screen_w_protease): 1.635

## Br.CCCN(CCC)C1CCc2cccc(O)c2C1 (racemic) [(±)-8-Hydroxy-DPAT hydrobromide]
[24]
  mean (LOPAC_screen_w_protease): 1.82
[21]
  Replicate_1 (LOPAC_screen_w_protease): 3.36
[22]
  Replicate_2 (LOPAC_screen_w_protease): 0.2793

## CCCCCCC(C(C)O)n1cnc2c(N)ncnc21.Cl (centres unmarked)
[28]
  mean: 3.427
[29]
  Replicate_1: 4.751
[30]
  Replicate_2: 2.103

## O=S(=O)(O)C1CCNCC1 [Piperidine-4-sulphonic acid]
[15]
  mean: 4.585
[16]
  Replicate_1: 5.428
[17]
  Replicate_2: 3.743

## Cl.N[C@@H](Cc1cnc[nH]1)C(=O)O [L-Histidine hydrochloride]
[28]
  mean: 3.829
[29]
  Replicate_1: 4.566
[30]
  Replicate_2: 3.093

## O=C([O-])CCC(NC(=O)c1ccccc1C(=O)[O-])C(=O)[O-].[Na+].[Na+].[Na+] [Phthalamoyl-L-glutamic acid trisodium]
[18]
  mean: 0.2394
[19]
  Replicate_1: 0.8142
[20]
  Replicate_2: -0.3354

## Cc1ccc(O)c(N=Nc2ccccc2)n1 [SIB 1757]
[4]
  mean: 2.268
[5]
  Replicate_1: 3.235
[6]
  Replicate_2: 1.301

## CN1C(C)(C)CCCC1(C)C [Pempidine tartrate]
[25]
  inhibition at 5 µM: 2.3%
[26]
  inhibition at 5 µM: 2.5%
[27]
  inhibition at 5 µM: 2.11%

## Cc1nc2n(c(=O)c1CCN1CCC(c3noc4cc(F)ccc34)CC1)CCCC2 [Risperidone]
[12]
  inhibition at 5 µM: 0.962%
[13]
  inhibition at 5 µM: 1.3%
[14]
  inhibition at 5 µM: 0.627%

## Nc1nc(OCc2ccccc2)c2nc[nH]c2n1 [O6-benzylguanine]
[7]
  inhibition at 5 µM: 0.721%
[23]
  inhibition at 5 µM: 2.08%
[8]
  mean (LOPAC_screen_w_protease): 1.401

## FC(F)(F)c1ccccc1-n1ccnc1 [1-[2-(Trifluoromethyl)phenyl]imidazole]
[18]
  mean: -0.5336
[19]
  Replicate_1: 0.8297
[20]
  Replicate_2: -1.897

## CN1CCN(c2ccc3ccccc3n2)CC1.O=C(O)/C=C\C(=O)O.O=C(O)/C=C\C(=O)O [Quipazine, N-methyl-, dimaleate]
[31]
  mean: 0.6078
[32]
  Replicate_1: 1.027
[33]
  Replicate_2: 0.1891

## Cl.NCCCCNS(=O)(=O)c1ccc2c(Cl)cccc2c1
[31]
  mean: 0.6799
[32]
  Replicate_1: 0.88
[33]
  Replicate_2: 0.4798

## CCCc1c(-c2ccc(O)cc2)nn(-c2ccc(O)cc2)c1-c1ccc(O)cc1
[9]
  mean: 1.246
[10]
  Replicate_1: 3.0422
[11]
  Replicate_2: -0.5503

## O=C(O)/C=C\C(=O)O.O=C(O)/C=C\C(=O)O.c1ccc2nc(N3CCNCC3)ccc2c1 [Quipazine dimaleate]
[31]
  mean: 0.5004
[32]
  Replicate_1: 0.6596
[33]
  Replicate_2: 0.3411

## COc1cc(Cc2cnc(N)nc2N)cc(OC)c1OC [Trimethoprim]
read-out: Replicate_1
  inhibition at 5 µM: -0.343%
read-out: Replicate_2
  inhibition at 5 µM: -3.24%
read-out: mean
  inhibition at 5 µM: -1.79%

## Cl.O=S(=O)(c1cccc2c(Cl)cccc12)N1CCCNCC1 [ML-9]
  Replicate_1: 1.4227
  Replicate_2: 4.79
  mean: 3.1064

## CNc1ncnc2c1ncn2[C@H]1C[C@H](OP(=O)(O)O)[C@@H](COP(=O)(O)O)O1 [MRS 2179]
[15]
  mean: 4.143
[16]
  Replicate_1: 4.368
[17]
  Replicate_2: 3.917

## CCCN1CCc2cccc3c2[C@H]1Cc1ccc(O)c(O)c1-3.Cl [R(-)-Propylnorapomorphine hydrochloride]
Sheet LOPAC_screen_w_protease, primary screen at 5 µM, mean of two replicates
  mean (LOPAC screen with protease): 100.867
Sheet LOPAC_screen_w_protease, primary screen at 5 µM, replicate 1
  Replicate_1 (LOPAC screen with protease): 101.086
Sheet LOPAC_screen_w_protease, primary screen at 5 µM, replicate 2
  Replicate_2 (LOPAC screen with protease): 100.647

## C[N+](C)(C)CC(=O)O [Betaine hydrochloride]
[12]
  inhibition at 5 µM: 1.07%
[13]
  inhibition at 5 µM: 0.144%
[14]
  inhibition at 5 µM: 1.99%
